By Km is commonly meant the concentration of substrate that gives half-maximal velocity.

The record followed here is publication PMC6332024, “Molecular Cloning and Characterization of a Xanthone Prenyltransferase from Hypericum calycinum Cell Cultures” (Molecules, 2015).

This assay has as its system T1, HcPT.
T1 construct: pFastBac1 baculovirus, microsomes of Sf9 insect cells
Description: HPLC-DAD prenylation assay with Sf9 microsomes, Lineweaver-Burk. The conditions noted are these: 4 mM MgCl2, 0.5 mM dithiothreitol, 50 mM potassium phosphate pH 7.5, 40 °C, 30 min. The format is biochemical, Hypericum calycinum.

For the molecule `O=c1c2cc(O)c(O)cc2oc2cc(O)cc(O)c12` [1,3,6,7-THX, 1,3,6,7-tetrahydroxyxanthone], under “400 µM DMAPP constant”, the Michaelis constant (Km) came to 211 ± 16 µM.

In the case of `CC(C)=CCOP(=O)(O)OP(=O)(O)O` [DMAPP, dimethylallyl diphosphate], the Km (500 µM 1,3,6,7-tetrahydroxyxanthone constant) was determined as 87 ± 5 µM.
